Where two headings read alike, the source gives them in different places.
Biological target: human NaV 1.8 (Homo sapiens, UniProt Q9Y5Y9)
Experiment: E-VIPR assay detecting and measuring NaV inhibition properties
Type: cell-based
Settings: HEK cells expressing truncated human NaV 1.8
Method in brief: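 Membrane potential was followed by coumarin/oxonol FRET during electrical field stimulation of matrigel-seeded HEK cells carrying truncated human NaV1.8 plus KIR2.1. Dosing used 11 points, 3-fold steps, top 300 nM final, 0.625% DMSO, with or without 25% human serum.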

[1] = no human serum, read-out: IC50 in the E-VIPR Assay
[2] = in the presence of human serum (compound numbers followed by *), read-out: IC50 in the E-VIPR Assay, performed in the presence of human serum

Sequence of human NaV 1.8 (Q9Y5Y9 126-399 limits assumed): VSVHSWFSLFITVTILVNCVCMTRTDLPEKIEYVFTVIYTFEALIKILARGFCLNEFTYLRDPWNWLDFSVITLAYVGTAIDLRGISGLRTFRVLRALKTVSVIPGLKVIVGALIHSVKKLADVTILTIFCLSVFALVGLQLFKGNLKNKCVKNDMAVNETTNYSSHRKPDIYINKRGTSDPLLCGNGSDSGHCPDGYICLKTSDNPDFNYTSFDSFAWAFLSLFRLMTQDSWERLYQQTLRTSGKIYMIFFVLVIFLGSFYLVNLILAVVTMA
Sequence of human NaV 1.8 (Q9Y5Y9 660-890 limits assumed): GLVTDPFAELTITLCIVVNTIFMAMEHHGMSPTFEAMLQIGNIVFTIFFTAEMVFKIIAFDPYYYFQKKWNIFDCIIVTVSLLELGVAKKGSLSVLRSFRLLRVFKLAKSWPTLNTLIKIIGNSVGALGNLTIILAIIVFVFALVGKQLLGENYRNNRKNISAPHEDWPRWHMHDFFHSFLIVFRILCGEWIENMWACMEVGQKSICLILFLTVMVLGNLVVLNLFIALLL
Sequence of human NaV 1.8 (Q9Y5Y9 1148-1722 limits assumed): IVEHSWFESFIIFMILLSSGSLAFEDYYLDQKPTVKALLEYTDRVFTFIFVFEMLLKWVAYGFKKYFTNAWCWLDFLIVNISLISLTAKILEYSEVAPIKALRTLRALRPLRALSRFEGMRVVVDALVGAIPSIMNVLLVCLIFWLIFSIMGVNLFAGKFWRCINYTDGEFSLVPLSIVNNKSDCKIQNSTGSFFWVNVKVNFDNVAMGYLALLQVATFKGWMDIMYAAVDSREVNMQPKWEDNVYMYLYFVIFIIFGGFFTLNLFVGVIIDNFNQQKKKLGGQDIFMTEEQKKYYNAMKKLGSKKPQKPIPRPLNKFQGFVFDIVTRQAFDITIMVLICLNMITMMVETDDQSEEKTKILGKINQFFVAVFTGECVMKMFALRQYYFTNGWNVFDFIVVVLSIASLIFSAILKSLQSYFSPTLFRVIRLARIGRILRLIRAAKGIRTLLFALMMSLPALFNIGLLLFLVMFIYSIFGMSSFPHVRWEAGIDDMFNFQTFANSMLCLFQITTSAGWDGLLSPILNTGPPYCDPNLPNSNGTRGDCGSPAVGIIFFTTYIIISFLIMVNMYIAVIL

SMILES | IC50 [1] | IC50 [2]
C[C@@H]1[C@H](c2ccc(F)c(F)c2OC(F)F)[C@@H](C(=O)Nc2ccc(C(N)=O)nc2)O[C@]1(C)C(F)(F)F (single isomer, unassigned) [Compound 93] | – | ≥ 1000 nM
C[C@H]1[C@@H](c2ccc(F)c(F)c2OC(F)F)[C@H](C(=O)Nc2ccc(C(N)=O)nc2)O[C@@]1(C)C(F)(F)F (single isomer, unassigned) [Compound 94] | < 10 nM | –
C[C@H]1[C@@H](c2ccc(F)c(F)c2OC(F)F)[C@H](C(=O)Nc2cncc(S(C)(=O)=O)c2)O[C@@]1(C)C(F)(F)F (single isomer, unassigned) [Compound 96] | < 10 nM | –
CCOc1c([C@H]2[C@H](C(=O)Nc3ccnc(C(O)CO)c3)O[C@@](C)(C(F)(F)F)[C@H]2C)ccc(F)c1F (single isomer, unassigned) [Compound 104, rel-(2R*,3S*,4S*,5R*)-N-(2-(1,2-dihydroxyethyl)pyridin-4-yl)-3-(2-ethoxy-3,4-difluorophenyl)-4,5-dimethyl-5-(trifluoromethyl)tetrahydrofuran-2-carboxamide] | < 10 nM | –
COc1c(C2C(C(=O)Nc3ccn4nnnc4c3)OC(C)(C(F)(F)F)C2C)ccc(F)c1C (single isomer, unassigned) [Compound 133, 3-(4-fluoro-2-methoxy-3-methyl-phenyl)-4,5-dimethyl-N-(tetrazolo[1,5-a]pyridin-7-yl)-5-(trifluoromethyl)tetrahydrofuran-2-carboxamide] | 100 to 1000 nM | –
COc1c(C2C(C(=O)Nc3ccn4nnnc4c3)OC(C)(C(F)(F)F)C2C)ccc(F)c1C (single isomer, unassigned) [Compound 134, 3-(4-fluoro-2-methoxy-3-methyl-phenyl)-4,5-dimethyl-N-(tetrazolo[1,5-a]pyridin-7-yl)-5-(trifluoromethyl)tetrahydrofuran-2-carboxamide] | < 10 nM | –
COc1c([C@H]2[C@H](C(=O)Nc3ccnc(C(O)CO)c3)O[C@@](C)(C(F)(F)F)[C@H]2C)ccc(F)c1C (single isomer, unassigned) [Compound 135] | < 10 nM | –
COc1c([C@@H]2[C@@H](C(=O)Nc3ccnc(C(O)CO)c3)O[C@](C)(C(F)(F)F)[C@@H]2C)ccc(F)c1C (single isomer, unassigned) [Compound 136] | – | ≥ 1000 nM
COc1c([C@@H]2[C@@H](C(=O)Nc3cc(C(O)CO)ncc3F)O[C@](C)(C(F)(F)F)[C@@H]2C)ccc(F)c1C (single isomer, unassigned) [Compound 139] | – | ≥ 1000 nM
COc1c([C@H]2[C@H](C(=O)Nc3cc(C(O)CO)ncc3F)O[C@@](C)(C(F)(F)F)[C@H]2C)ccc(F)c1C (single isomer, unassigned) [Compound 140] | – | 10 to 100 nM
COc1c(C2C(C(=O)Nc3ccnc(C(O)C(C)O)c3)OC(C)(C(F)(F)F)C2C)ccc(F)c1C (single isomer, unassigned) [Compound 142] | – | ≥ 1000 nM
COc1c(C2C(C(=O)Nc3ccnc(C(O)C(C)O)c3)OC(C)(C(F)(F)F)C2C)ccc(F)c1C (single isomer, unassigned) [Compound 143] | – | ≥ 1000 nM
COc1c(C2C(C(=O)Nc3ccnc(C(O)C(C)O)c3)OC(C)(C(F)(F)F)C2C)ccc(F)c1C (single isomer, unassigned) [Compound 144] | < 10 nM | –
COc1c(C2C(C(=O)Nc3ccnc(C(O)C(C)O)c3)OC(C)(C(F)(F)F)C2C)ccc(F)c1C (single isomer, unassigned) [Compound 146] | – | ≥ 1000 nM
COc1c(C2C(C(=O)Nc3ccnc(C(O)C(C)O)c3)OC(C)(C(F)(F)F)C2C)ccc(F)c1C (single isomer, unassigned) [Compound 148] | – | < 10 nM
COc1c(C2C(C(=O)Nc3ccnc(C(O)C(C)O)c3)OC(C)(C(F)(F)F)C2C)ccc(F)c1C (single isomer, unassigned) [Compound 149] | – | 100 to 1000 nM
COc1c([C@H]2[C@H](C(=O)Nc3ccnc(N4CCN(C)CC4=O)c3)O[C@@](C)(C(F)(F)F)[C@H]2C)ccc(F)c1C(F)F (single isomer, unassigned) [Compound 162] | < 10 nM | –
COc1c([C@@H]2[C@@H](C(=O)Nc3ccnc(N4CCN(C)CC4=O)c3)O[C@](C)(C(F)(F)F)[C@@H]2C)ccc(F)c1C(F)F (single isomer, unassigned) [Compound 163] | 100 to 1000 nM | –
COc1c([C@@H]2[C@@H](C(=O)Nc3ccc(C(F)F)nc3)O[C@](C)(C(F)(F)F)[C@@H]2C)ccc(F)c1C(F)F (single isomer, unassigned) [Compound 164] | ≥ 1000 nM | –

Continued, values first:

IC50 [1] | IC50 [2] | SMILES
< 10 nM | – | CCS(=O)(=O)c1cc(NC(=O)[C@@H]2O[C@@](C)(C(F)(F)F)[C@@H](C)[C@H]2c2ccc(F)c(F)c2OC(F)F)ccn1 (single isomer, unassigned) [Compound 90]
≥ 1000 nM | – | C[C@@H]1[C@H](c2ccc(F)c(F)c2OC(F)F)[C@@H](C(=O)Nc2ccnc(CO)c2)O[C@]1(C)C(F)(F)F (single isomer, unassigned) [Compound 91]
< 10 nM | – | C[C@H]1[C@@H](c2ccc(F)c(F)c2OC(F)F)[C@H](C(=O)Nc2ccnc(CO)c2)O[C@@]1(C)C(F)(F)F (single isomer, unassigned) [Compound 92]
100 to 1000 nM | – | CCOc1c(C2C(C(=O)Nc3ccnc(S(C)(=N)=O)c3)OC(C)(C(F)(F)F)C2C)ccc(F)c1F (single isomer, unassigned) [Compound 109, 3-(2-ethoxy-3,4-difluoro-phenyl)-4,5-dimethyl-N-[2-(methylsulfonimidoyl)-4-pyridyl]-5-(trifluoromethyl)tetrahydrofuran-2-carboxamide]
< 10 nM | – | CCOc1c(C2C(C(=O)Nc3ccnc(S(C)(=N)=O)c3)OC(C)(C(F)(F)F)C2C)ccc(F)c1F (single isomer, unassigned) [Compound 110, 3-(2-ethoxy-3,4-difluoro-phenyl)-4,5-dimethyl-N-[2-(methylsulfonimidoyl)-4-pyridyl]-5-(trifluoromethyl)tetrahydrofuran-2-carboxamide]
< 10 nM | – | CCOc1c([C@H]2[C@H](C(=O)Nc3ccnc(S(C)(=N)=O)c3)O[C@@](C)(C(F)(F)F)[C@H]2C)ccc(F)c1F (single isomer, unassigned) [Compound 111]
100 to 1000 nM | – | CC(C)Oc1c([C@@H]2[C@@H](C(=O)Nc3ccnc(S(C)(=N)=O)c3)O[C@](C)(C(F)(F)F)[C@@H]2C)ccc(F)c1F (single isomer, unassigned) [Compound 117]
≥ 1000 nM | – | CC(C)Oc1c([C@@H]2[C@@H](C(=O)Nc3ccnc(S(C)(=N)=O)c3)O[C@](C)(C(F)(F)F)[C@@H]2C)ccc(F)c1F (single isomer, unassigned) [Compound 118]
< 10 nM | – | CC(C)Oc1c([C@H]2[C@H](C(=O)Nc3ccnc(S(C)(=N)=O)c3)O[C@@](C)(C(F)(F)F)[C@H]2C)ccc(F)c1F (single isomer, unassigned) [Compound 119]
100 to 1000 nM | – | CCOc1c([C@@H]2[C@@H](C(=O)Nc3ccnc(S(C)(=N)=O)c3)O[C@](C)(C(F)(F)F)[C@@H]2C)ccc(F)c1C (single isomer, unassigned) [Compound 126]
< 10 nM | – | CCOc1c([C@H]2[C@H](C(=O)Nc3ccnc(S(C)(=N)=O)c3)O[C@@](C)(C(F)(F)F)[C@H]2C)ccc(F)c1C (single isomer, unassigned) [Compound 128]
< 10 nM | – | CCOc1c([C@H]2[C@H](C(=O)Nc3ccnc(S(C)(=O)=NC)c3)O[C@@](C)(C(F)(F)F)[C@H]2C)ccc(F)c1C (single isomer, unassigned) [Compound 130]

— patent US20240368135A1 (VERTEX PHARMACEUTICALS INCORPORATED, priority 2021, published 2024)
